Data from patent publication US20050037033A1, “Microbicidal compositions and methods and use” (priority 2003, published 2005).

Columns and labels:
[1] = test system: HIV; assay: Cell-free inactivation assay; assay type: cell-based; conditions: virus incubated with product for 2 minutes
Experimental: Cell-free inactivation assay: Virus was incubated with product for 2 minutes, a series of 10-fold dilutions were made, each dilution was added to the host cells and viral infectivity was measured.

[2] = test system: HSV-2; assay: HSV-2 virucidal assay; assay type: cell-based; conditions: Human alphaherpesvirus 2, 1 h, at 400 μg/ml (highest concentration tested); 60 min at 37° C.
Experimental: The virucidal activities of ciclopiroxolamine against HSV-2 were tested by mixing various concentrations of the test compound with 2×10^5 PFU of HSV-2, respectively, and incubating at 37° C. for 60 min. The culture medium was included as a […] control. At the end of incubation, the mixtures were diluted 1 in 1000 with culture medium. The infectivity of treated virus was determined by a standard viral plaque assay. Briefly, confluent Vero cells were washed with PBS and subsequently infected with 1 ml of treated mixture at 37° C. for 1 h. After viral inoculum was removed, the infected cells were washed with PBS and overlaid with 0.5% methylcellulose in culture medium. The infected cells were incubated at 37° C. for 2 days to allow the plaques to develop.

[3] = test system: N. gonorrheae, strain ms11a; assay: Neisseria gonorrhea inhibition assay; assay type: cell-based; conditions: gonococcal agar, overnight, colonies counted
Experimental: Compound was incorporated into gonococcal agar, the agar/agent mixture was poured on culture dishes and inoculated with N. gonorrheae, strain ms11a (10 μl of each dilution: 10^−1 to 10^−5 of a starting 0.5 Mcfarland solution which is equal to 1.5×10^8 colony forming units (cfu)/ml). The plates were incubated overnight (20-22 hours) and the colonies counted.

[4] = test system: C. albicans; assay: Aerobe inhibition assay; assay type: cell-based; conditions: Candida albicans; 2 strains; read-out: Minimum Inhibitory Concentrations (MICs)
Experimental: (§1) The aerobic organisms were suspended into saline to the turbidity of the 0.5 McFarland standard, diluted 1:10, pipetted into the wells of the Steers replicator head, and stamped onto the Mueller Hinton agar plates containing the serial dilutions of the antimicrobials.
(§2) The anaerobes were incubated in an anaerobic chamber at 37° C. for 2 days; aerobes were incubated in ambient air at 36° C. for 20h.

[5] = test system: Enterococcus faecalis; assay: Aerobe inhibition assay; assay type: cell-based; conditions: 1 strain, read-out: Minimum Inhibitory Concentrations (MICs)
Experimental: as §1, §2

[6] = test system: K1 pneumoniae; assay: Aerobe inhibition assay; assay type: cell-based; conditions: 2 strains
Experimental: as §1, §2

[7] = test system: Gardnerella vaginalis; assay: Anaerobe inhibition assay; assay type: cell-based; conditions: 2 strains, read-out: Minimum Inhibitory Concentrations (MICs)
[8] = test system: Mobiluncus mulieris; assay: Anaerobe inhibition assay; assay type: cell-based; conditions: 2 strains, read-out: Minimum Inhibitory Concentrations (MICs)
[9] = test system: Bacteroides fragilis; assay: Anaerobe inhibition assay; assay type: cell-based; conditions: 1 strain, read-out: Minimum Inhibitory Concentrations (MICs)
[10] = test system: Bacteroides thetaiotaomicron; assay: Anaerobe inhibition assay; assay type: cell-based; conditions: 1 strain, read-out: Minimum Inhibitory Concentrations (MICs)
Experimental: (§3) Working in an anaerobic chamber, the anaerobes were suspended into brucella broth to the turbidity of the 0.5 McFarland standard and pipetted into the wells of the Steers replicator head, removed from the chamber and stamped onto the supplemented Brucella agar plates containing the serial dilutions of the antimicrobials and the growth control plates. The final inoculum was 10^5 cfu/spot.
as §2

[11] = test system: Clost perfringes; assay: Anaerobe inhibition assay; assay type: cell-based, Clostridium perfringes; conditions: Clostridium, 2 strains, read-out: Minimum Inhibitory Concentrations (MICs)
Experimental: as §3, §2

[12] = test system: Eubact lentum; assay: Anaerobe inhibition assay; assay type: cell-based; conditions: 2 strains, read-out: Minimum Inhibitory Concentrations (MICs)
[13] = test system: Porphyromonas levii; assay: Anaerobe inhibition assay; assay type: cell-based; conditions: 2 strains, read-out: Minimum Inhibitory Concentrations (MICs)
[14] = test system: Prevotella bivia; assay: Anaerobe inhibition assay; assay type: cell-based; conditions: 2 strains, read-out: Minimum Inhibitory Concentrations (MICs)
[15] = test system: Prevotella disiens; assay: Anaerobe inhibition assay; assay type: cell-based; conditions: 2 strains, read-out: Minimum Inhibitory Concentrations (MICs)
[16] = test system: Prevotella melaninogenica; assay: Anaerobe inhibition assay; assay type: cell-based; conditions: 2 strains, read-out: Minimum Inhibitory Concentrations (MICs)
[17] = test system: Staph. aureus; assay: Aerobe inhibition assay; assay type: cell-based, Staphylococcus aureus; conditions: 3 strains
Experimental: as §1, §2

[18] = test system: Gardnerella vaginalis, Mobiluncus spp., Bacteroides spp., Clostridium perfringes, Fusobacterium nucleatum, Peptostreptococcus spp., Porphyromonas spp., and …; assay: Anaerobe inhibition assay, all anaerobes tested; assay type: cell-based
[19] = test system: Lactobacilli (L. jensii, L. gasseri, L. acidophilus, L. salivarius); assay: Lactobacillus Steers time-kill (TK) assay, all strains; assay type: cell-based
[20] = Cytotoxicity assay; assay type: cell-based
Experimental: The cells listed in Table 4 were incubated for the indicated period of time with different concentrations of ciclopiroxolamine and cell viability was measured by the 3-(4,5-dimethylthiazol-2-yl)-2,5-diphenyltetrazolium bromide (MTT) assay or by treatment with propidium iodide and fluorescence. Percent viability was calculated with respect to the viability of mock-exposed cells (cells incubated without compounds).
In the MTT assay, the effect of each agent on cell viability was determined using an assay in which dehydrogenases in viable cells cleave the compound 3-(4,5-dimethylthiazol-2-yl)-2,5-diphenyltetrazolium bromide (MTT), yielding a purple product (formazan) which can be measured spectrophotometrically (Pauwels et al., 1988). Cells were seeded into 96 well plates at a density of 3×10^4 cells/well 24 hours prior to introduction of the microbicides. Agents were diluted in as previously indicated. Agents were added to triplicate wells in half-log serial dilutions. Cells were incubated in the absence or presence of each agent at 37° C. under 5% CO2 and 90% humidity for 2 hours. At the conclusion of each experiment, cells were washed, replenished with fresh medium and incubated with MTT (250 μl/well) for 2 hours at 37° C. Following removal of the medium (by aspiration), intracellular formazan crystals were solubilized with 10% Triton X-100 in acidified isopropanol. The resulting solutions were assayed spectrophotometrically at 570 nm and corrected for non-specific absorption at 690 nm. In this assay, measured absorbance is proportional to the viable cell number, and inversely proportional to the degree of cytotoxicity.

[21] = test system: spermatozoa; assay: Sperm immobilization assay; assay type: cell-based
Experimental: To assess sperm-immobilizing activity, compounds were incubated with sperm for 30 seconds in two fold serial dilutions. Those dilutions that immobilized all screened spermatozoa were further diluted several times in buffer and incubated at 37° C., 5% CO2, for 1 h, to verify any possible recovery of motility. Only those dilutions (compound concentrations) that immobilized all spermatozoa with no recovery of motility were considered “positive” and used to calculate the compound's minimum effective concentration (MEC).

Cc1cc(C2CCCCC2)n(O)c(=O)c1.NCCO [CO, 6-Cyclohexyl-1-hydroxy-4-methyl-2-(1H)-pyridone ethanolamine salt]
log reduction (viral infectivity) ([1]; At 0.09%): At 0.09%: ≧2.0 log
log reduction (viral infectivity) ([1]; At 0.3%): At 0.3%: ≧2.7 log
inhibition at 400 µg/mL [2]: 40%
IC50 [3]: 1 µg/mL
MIC [4]: 20 µg/mL
MIC [5]: 80 µg/mL
Minimum Inhibitory Concentrations (MICs) [6]: 80 µg/mL
MIC ([6]; read-out: Minimum Inhibitory Concentrations (MICs)): 40 µg/mL
MIC [7]: 80 µg/mL
MIC [8]: 40 µg/mL
MIC [9]: 40 µg/mL
MIC [10]: 40 µg/mL
MIC [11]: 40 µg/mL
MIC [12]: 40 µg/mL
MIC [13]: 40 µg/mL
MIC [14]: 40 µg/mL
MIC [15]: 40 µg/mL
MIC [16]: 40 µg/mL
Minimum Inhibitory Concentrations (MICs) [17]: 80 µg/mL
MIC ([17]; Staphylococcus aureus, read-out: Minimum Inhibitory Concentrations (MICs)): 40 µg/mL
minimal inhibitory concentrations (MICs), range over all anaerobes tested [18]: 40 to 80 µg/mL
effect on lactobacilli (summary in words) [19]: inhibits the growth of lactobacilli but does not kill them
CC50 at 2 h ([20]; African green monkey, Vero cells, Series 4, 2 hour incubation): > 200 µg/mL
CC50 at 2 h ([20]; human, P4-R5 cells, Series 2, P4-R5, 2 hour incubation, 100 μg/ml highest conc tested): > 100 µg/mL
CC50 at 2 h ([20]; human, VK-2/E6E7 cells (vaginal epithelium cell line), Series 2, VK-2/E6E7, 2 hour incubation): 100 µg/mL
cytotoxicity towards spermatozoa [21]: very little cytotoxicity towards spermatozoa
Sperm immobilization activity, MEC (minimum effective concentration) ([21]; 30 seconds incubation with sperm): MEC: 1,200-8,800 μg/ml
